From patent publication US10696686B2, “Herbicidally active (alkynyl-phenyl)-substituted cyclic dione compounds and derivatives thereof” (Syngenta Limited, priority 2013, dated 2020)

How the values were obtained:
Format in all cases: in vivo
[1] = test system: Zea mays (ZEAMX, corn, maize, e.g. volunteer corn); experiment: Biological Example 1B glasshouse assay, pre-emergence application; details: 250 g/ha, 13 days after application
Procedure: (§1) Seeds of a variety of test plant species were sown in standard soil ** in pots. After cultivation for one day (pre-emergence) or after 8 days cultivation (post-emergence) under controlled conditions in a glasshouse (at 24/16° C., day/night; 14 hours light; 65% humidity), the plants were sprayed with an aqueous spray solution derived from the formulation of the technical active ingredient (the test herbicide) in acetone/water (50:50) solution containing 0.5% Tween 20 (polyoxyethylene sorbitan monolaurate, CAS Reg. No. 9005-64-5). The test plants were then grown on under controlled conditions in a glasshouse (at 24/16° C., day/night; 14 hours light; 65% humidity) and watered twice daily. 13 Days after application of the test herbicide, for pre- and post-emergence, the test was evaluated visually for percentage phytotoxicity to each plant (where 100%=total damage to plant; 0%=no damage to plant). Generally, each test herbicide is only tested on 1 plant per plant species for each application rate tested and for each application timing. ** The “standard soil” in Biological Example 1 is usually a “sand” or “sandy loam” type of soil.
Dicotyledonous weeds: ABUTH=Abutilon theophrasti; AMARE=Amaranthus retroflexus. Grassy monocotyledonous weeds: SETFA=Setaria faberi; ALOMY=Alopecurus myosuroides; ECHCG=Echinochloa crus-galli; ZEAMX=Zea mays (corn, maize, e.g. volunteer corn). For Compound A16, the grassy monocotyledonous weed LOLPE (Lolium perenne) was used in the test insterad of ALOMY.

[2] = test system: grassy (in particular warm climate grassy) monocotyledonous weeds; experiment: Post-emergence herbicidal activity, summary statements on Biological Examples 1 to 3; details: applied at about 250 g/ha post-emergence; Biological Examples 1 and 2
Procedure: as §1
Seeds of a variety of monocotyledonous and dicotyledonous test plants are sown in standard soil in pots. The plants are cultivated for one day (for pre-emergence) or for about 12 days (range=10-13 days) (for post-emergence) under controlled conditions in a glasshouse (warm climate species at 24/18° C., cool climate species at 20/16° C., both at day/night; 16 hours light; 65% humidity). An “instant formulation”, known as the “IF50”, containing 50 g/litre (i.e. 5% w/v) of the “technical” (i.e. unformulated) active ingredient is prepared by dissolving the active ingredient in a mixture of organic solvents and emulsifier, details of which are provided in the Table below. […]
The test plants are then grown on, in a glasshouse (greenhouse) under controlled conditions (at either 24/18° C. or 20/16° C. (day/night) as mentioned above; 16 hours light; 65% humidity) and are watered twice daily. Either 14 or 15 days after application of the herbicide (14 or 15 DAA) (for post-emergence), or 20 days after application of the herbicide (20 DAA) (for pre-emergence), the test plants are evaluated visually, and an assessed percentage phytotoxicity score is given for each herbicidal application on each plant species (where 100%=total damage to plant; 0%=no damage to plant). […]

[3] = test system: SORVU (Sorghum bicolor (L.) Moench ssp. Bicolor, or Sorghum vulgare Pers.); experiment: Biological Example 2 glasshouse assay (IF50 formulation, X-77), post-emergence; details: 14 or 15 DAA
Procedure: (§2) Seeds of a variety of monocotyledonous and dicotyledonous test plants are sown in standard soil in pots. The plants are cultivated for one day (for pre-emergence) or for about 12 days (range=10-13 days) (for post-emergence) under controlled conditions in a glasshouse (warm climate species at 24/18° C., cool climate species at 20/16° C., both at day/night; 16 hours light; 65% humidity). An “instant formulation”, known as the “IF50”, containing 50 g/litre (i.e. 5% w/v) of the “technical” (i.e. unformulated) active ingredient is prepared by dissolving the active ingredient in a mixture of organic solvents and emulsifier, details of which are provided in the Table below. This IF50 is then mixed with a small, variable amount of acetone to aid dissolution, before addition of a 0.2% v/v aqueous solution of the adjuvant X-77 (which is a mixture of alkyl aryl polyoxyethylene glycols and free fatty acids in isopropanol, CAS Registry number 11097-66-8), as the aqueous diluent, to form an aqueous spray solution which contains a predetermined concentration of the active ingredient (which varies depending on the application rate of the active ingredient to the plants) and 0.2% v/v of the adjuvant X-77. This aqueous spray solution is then sprayed onto the plants, after one day's cultivation (for pre-emergence) or after about 12 days' cultivation (for post-emergence).
(§3) The test plants are then grown on, in a glasshouse (greenhouse) under controlled conditions (at either 24/18° C. or 20/16° C. (day/night) as mentioned above; 16 hours light; 65% humidity) and are watered twice daily. Either 14 or 15 days after application of the herbicide (14 or 15 DAA) (for post-emergence), or 20 days after application of the herbicide (20 DAA) (for pre-emergence), the test plants are evaluated visually, and an assessed percentage phytotoxicity score is given for each herbicidal application on each plant species (where 100%=total damage to plant; 0%=no damage to plant). Some of the typical test plants are as follows: Cool climate crop plants: Triticum aestivum (TRZAW, winter wheat), Brassica napus (BRSNN, rape, also called oilseed rape or rapeseed), Beta vulgaris (BEAVA, sugarbeet). Warm climate crop plants: Glycine max (GLXMA, soybean). Cool climate (“cool season”) grassy monocotyledonous weeds: Alopecurus myosuroides (ALOMY), Avena fatua (AVEFA), Lolium perenne (LOLPE), Poa annua (POAAN), Bromus tectorum (BROTE). Warm climate (“warm season”) grassy monocotyledonous weeds: Setaria faberi (SETFA), SORVU (Sorghum bicolor (L.) Moench ssp. Bicolor, or Sorghum vulgare Pers.), Digitaria sanguinalis (DIGSA), Echinochloa crus-galli (ECHCG), Brachiaria plantaginea (BRAPL), Zea mays (ZEAMX, corn, maize, e.g. volunteer corn), Panicum miliaceum (PANMI).

[4] = test system: Brachiaria plantaginea (BRAPL); experiment: as above; details: 14 or 15 DAA
Procedure: as §2, §3

Lolium perenne (LOLPE) = experiment: as above; details: 14 or 15 DAA
Procedure: as §2, §3

[5] = test system: Triticum aestivum (TRZAW, winter wheat); experiment: as above; details: for percentage phytotoxicity score TRZAW: 14 or 15 DAA
Procedure: as §2, §3

[6] = test system: Zea mays (ZEAMX, corn, maize, e.g. volunteer corn); experiment: as above; details: 14 or 15 DAA
Procedure: as §2, §3

Setaria faberi (SETFA) = experiment: as above; details: 14 or 15 DAA
Procedure: as §2, §3

[7] = test system: Glycine max (GLXMA, soybean); experiment: as above; details: for percentage phytotoxicity score GLXMA: post-emergence, 14 or 15 DAA
Procedure: as §2, §3

[8] = test system: Echinochloa crus-galli (ECHCG); experiment: as above; details: 14 or 15 DAA
Procedure: as §2, §3

Avena fatua (AVEFA) = experiment: as above; details: 14 or 15 DAA
Procedure: as §2, §3

[9] = test system: Digitaria sanguinalis (DIGSA); experiment: as above; details: 14 or 15 DAA
Procedure: as §2, §3

[10] = test system: Brassica napus (BRSNN, rape); experiment: as above; details: 14 or 15 DAA
Procedure: as §2, §3

[11] = test system: Alopecurus myosuroides (ALOMY); experiment: as above; details: 14 or 15 DAA
Procedure: as §2, §3

[12] = test system: Beta vulgaris (BEAVA, sugarbeet); experiment: as above; details: for percentage phytotoxicity score BEAVA: post-emergence, 14 or 15 DAA
Procedure: as §2, §3

[13] = 125 g/ha (rate taken from row order)
[14] = 250 g/ha (rate taken from row order)
[15] = e.g. when applied at 30 g/ha post-emergence, see Biological Example 2

In the case of `C#CCC1CC(=O)C(c2c(F)cc(C#CC)cc2OC)C1=O` (stereo not shown) [Compound A8, 2-(2-fluoro-6-methoxy-4-prop-1-ynyl-phenyl)-4-prop-2-ynyl-cyclopentane-1,3-dione], the “Percentage phytotoxicity ZEAMX” value [1] is reported as 100%, the “post-emergent herbicidal potency against grassy monocotyledonous weeds (in words)” value [2] is reported as “potent post-emergent herbicides” and the “percentage phytotoxicity score SORVU” value [3, 13] is reported as 100%. For the same compound, the “percentage phytotoxicity score SORVU” value [3, 14] was 100%, the “percentage phytotoxicity score BRAPL” value [4, 13] was 100% and the “percentage phytotoxicity score BRAPL” value [4, 14] was 100%. The “percentage phytotoxicity score LOLPE” value (Lolium perenne (LOLPE); [13]) was 30%, the “percentage phytotoxicity score LOLPE” value (Lolium perenne (LOLPE); [14]) was 80% and the “percentage phytotoxicity score TRZAW” value ([5]; 125 g/ha) was 50%. For the same compound, the “percentage phytotoxicity score TRZAW” value ([5]; 250 g/ha) was 70%, the “phytotoxicity against wheat (in words)” value ([5]; relative to herbicidal activity against warm-climate grassy weeds, Biological Example 2) was “medium or reasonably low phytotoxicity” and the “percentage phytotoxicity score ZEAMX” value ([6]; 125 g/ha) was 100%. The “percentage phytotoxicity score ZEAMX” value ([6]; 250 g/ha) was 100%, the “percentage phytotoxicity score SETFA” value (Setaria faberi (SETFA); [13]) was 90% and the “percentage phytotoxicity score SETFA” value (Setaria faberi (SETFA); [14]) was 100%. For the same compound, the “phytotoxicity against soybean (in words)” value [7, 15] was “low or reasonably low phytotoxicity”, the “percentage phytotoxicity score GLXMA” value ([7]; 125 g/ha) was 10% and the “percentage phytotoxicity score GLXMA” value ([7]; 250 g/ha) was 30%. The “percentage phytotoxicity score ECHCG” value [8, 13] was 100%, the “percentage phytotoxicity score ECHCG” value [8, 14] was 100% and the “percentage phytotoxicity score AVEFA” value (Avena fatua (AVEFA); [13]) was 30%. For the same compound, the “percentage phytotoxicity score AVEFA” value (Avena fatua (AVEFA); [14]) was 70%, the “percentage phytotoxicity score DIGSA” value [9, 13] was 100% and the “percentage phytotoxicity score DIGSA” value [9, 14] was 100%. For the same compound, the “percentage phytotoxicity score BRSNN” value ([10]; 125 g/ha) was 40%, the “percentage phytotoxicity score BRSNN” value ([10]; 250 g/ha) was 60% and the “percentage phytotoxicity score ALOMY” value ([11]; 125 g/ha) was 50%. The “percentage phytotoxicity score ALOMY” value ([11]; 250 g/ha) was 70%, the “phytotoxicity against sugarbeet (in words)” value [12, 15] was “low or reasonably low phytotoxicity” and the “percentage phytotoxicity score BEAVA” value ([12]; 125 g/ha) was 10%. The “percentage phytotoxicity score BEAVA” value ([12]; 250 g/ha) was 10%.
